In DBAASP:
≈ marks a conversion by molar mass, not a printed value.

Tests used:
Experiment in all cases: ≥ marks a high value that may be exact or a test limit, other limits are often not marked, values filed in µg/mL are converted to µM
[1] = system: Escherichia coli ATCC 25922
[2] = system: Staphylococcus aureus ATCC 29213
[3] = system: Pseudomonas aeruginosa ATCC 27853
[4] = system: Staphylococcus aureus ATCC 25923

| SMILES | MIC [1] [µM] | MIC [2] [µM] | MIC [3] [µM] | MIC [4] [µM] |
| --- | --- | --- | --- | --- |
| CC[C@H](C)[C@H](NC(=O)[C@H](CCCCN)NC(=O)[C@H](CCCCN)NC(=O)[C@H](C)N)C(=O)N[C@@H](CCCN=C(N)N)C(=O)N[C@H](C(=O)N[C@@H](CCCN=C(N)N)C(=O)N[C@@H](CC(C)C)C(=O)N[C@@H](CO)C(=O)N[C@@H](C)C(=O)O)C(C)C [AKKIRVRLSA] | 14 (≈ 16 µg/mL) | > 56.1 | 14 (≈ 16 µg/mL) |  |
| CSCC[C@H](NC(=O)[C@H](CC(N)=O)NC(=O)[C@H](Cc1ccccc1)NC(=O)CNC(=O)[C@H](CC(=O)O)NC(=O)[C@H](CC(C)C)NC(=O)[C@H](CCCCN)NC(=O)[C@H](CCSC)NC(=O)[C@H](CCC(=O)O)NC(=O)[C@@H](N)CC(=O)O)C(=O)N[C@@H](Cc1cnc[nH]1)C(=O)N[C@@H](CC(C)C)C(=O)N[C@@H](CCC(=O)O)C(N)=O [DEMKLDGFNMHLE] | 20 (≈ 31.6 µg/mL) |  |  | 40.5 (≈ 63.9 µg/mL) |
| CC(C)[C@H](NC(=O)[C@H](C)NC(=O)[C@@H](N)Cc1ccccc1)C(=O)N[C@H](C(=O)N[C@@H](Cc1c[nH]c2ccccc12)C(=O)N[C@@H](C)C(=O)N[C@H](C(=O)N[C@@H](CCCCN)C(=O)N[C@@H](Cc1c[nH]c2ccccc12)C(=O)N[C@@H](Cc1c[nH]c2ccccc12)C(=O)N[C@@H](CCCCN)C(=O)NCC(N)=O)[C@@H](C)O)[C@@H](C)O [FAVTWATKWWKG] | > 125 |  |  | 100 (≈ 148 µg/mL) |
| CC[C@H](C)[C@H](NC(=O)[C@H](CCCN=C(N)N)NC(=O)[C@H](CCC(N)=O)NC(=O)[C@@H](NC(=O)[C@@H](NC(=O)[C@H](CCCN=C(N)N)NC(=O)[C@H](CCCCN)NC(=O)[C@@H](N)Cc1ccccc1)[C@@H](C)CC)C(C)C)C(=O)N[C@@H](CCCCN)C(=O)N[C@@H](CC(=O)O)C(=O)N[C@@H](CC(N)=O)C(=O)N[C@@H](CC(C)C)C(=O)N[C@@H](CCCN=C(N)N)C(=O)O [FKRIVQRIKDNLR] | 20 (≈ 33.7 µg/mL) | > 40 |  |  |
| CC(C)[C@H](NC(=O)[C@@H]1CCCN1C(=O)[C@@H](N)Cc1ccccc1)C(=O)N[C@H](C(=O)N[C@@H](Cc1c[nH]c2ccccc12)C(=O)N[C@@H](CCCN=C(N)N)C(=O)N[C@H](C(=O)N[C@@H](CCCCN)C(=O)N[C@@H](Cc1c[nH]c2ccccc12)C(=O)N[C@@H](Cc1c[nH]c2ccccc12)C(=O)N[C@@H](CCCCN)C(=O)NCC(N)=O)[C@@H](C)O)[C@@H](C)O [FPVTWRTKWWKG] | 15.5 (≈ 24.7 µg/mL) |  |  | > 3.1 |
| CC[C@H](C)[C@H](NC(=O)[C@H](CCSC)NC(=O)[C@H](C)NC(=O)[C@@H]1CCCN1C(=O)[C@@H](NC(=O)[C@@H](NC(=O)[C@H](CCCCN)NC(=O)[C@@H](NC(=O)[C@H](CC(C)C)NC(=O)CNC(=O)CN)[C@@H](C)CC)[C@@H](C)CC)C(C)C)C(=O)N[C@H]1CSSC[C@@H](C(=O)O)NC(=O)[C@H](CCCCN)NC(=O)[C@H](CCCCN)NC(=O)[C@H]([C@@H](C)O)NC(=O)[C@H](C(C)C)NC(=O)[C@H](C)NC1=O [GGLIKIVPAMICAVTKKC] | > 139 | 139 (≈ 256 µg/mL) | > 139 |  |
| CC[C@H](C)[C@H](NC(=O)CN)C(=O)NCC(=O)N[C@@H](CCCN=C(N)N)C(=O)N[C@@H](CCCCN)C(=O)N[C@@H](Cc1ccccc1)C(=O)N[C@@H](CC(C)C)C(=O)NCC(=O)NCC(=O)N[C@H](C(=O)N[C@@H](CCCCN)C(=O)N[C@H](C(=O)N[C@H](C(=O)N[C@@H](Cc1ccccc1)C(=O)N[C@@H](CCCN=C(N)N)C(=O)N[C@@H](CS)C(=O)NCC(=O)N[C@H](C(=O)N[C@@H](CCCCN)C(=O)N[C@@H](CC(=O)O)C(=O)N[C@@H](Cc1ccccc1)C(=O)N[C@@H](C)C(=O)N[C@@H](CO)C(=O)N[C@@H](CCCCN)C(=O)N[C@@H](Cc1cnc[nH]1)C(=O)N[C@@H](CC(C)C)C(=O)N[C@@H](Cc1ccc(O)cc1)C(N)=O)C(C)C)[C@@H](C)O)[C@@H](C)O)C(C)C [GIGRKFLGGVKTTFRCGVKDFASKHLY] | 150 (≈ 448 µg/mL) |  |  |  |
| CC[C@H](C)[C@H](NC(=O)CN)C(=O)N[C@@H](CCCCN)C(=O)N[C@@H](CC(=O)O)C(=O)N[C@@H](CC(C)C)C(=O)N[C@@H](CC(C)C)C(=O)N[C@@H](CCCCN)C(=O)NCC(=O)N[C@@H](C)C(=O)N[C@@H](C)C(=O)N[C@@H](CCCCN)C(=O)N[C@@H](C)C(=O)N[C@@H](CC(C)C)C(=O)N[C@H](C(=O)N[C@@H](CCCCN)C(=O)N[C@H](C(=O)N[C@H](C(=O)N[C@@H](CC(C)C)C(=O)N[C@@H](Cc1ccccc1)C(N)=O)C(C)C)[C@@H](C)O)C(C)C [GIKDLLKGAAKALVKTVLF] | 3 (≈ 5.95 µg/mL) |  |  |  |
| CC[C@H](C)[C@H](NC(=O)[C@H](CCCN=C(N)N)NC(=O)[C@H](CCCCN)NC(=O)[C@H](CC(C)C)NC(=O)[C@H](CC(C)C)NC(=O)CN)C(=O)N[C@@H](CCCCN)C(N)=O [GLLKRIK] | > 33.9 |  |  | > 33.9 |
| CC[C@H](C)[C@H](NC(=O)[C@H](CCCN=C(N)N)NC(=O)[C@H](CCCCN)NC(=O)[C@@H](NC(=O)[C@@H](NC(=O)CN)C(C)C)C(C)C)C(=O)N[C@@H](CCCCN)C(=O)N[C@H](C(=O)N[C@H](C(=O)N[C@H](C(N)=O)C(C)C)C(C)C)[C@@H](C)O [GVVKRIKTVV] | > 200 |  |  |  |
| CC(C)C[C@H](NC(=O)[C@@H](NC(=O)[C@H](CCCCN)NC(=O)CNC(=O)[C@H](Cc1ccccc1)NC(=O)[C@@H](NC(=O)[C@H](CC(=O)O)NC(=O)CNC(=O)[C@H](Cc1c[nH]c2ccccc12)NC(=O)CN)[C@@H](C)O)C(C)C)C(=O)N[C@@H](CCCCN)C(=O)N[C@@H](CC(N)=O)C(=O)N[C@@H](Cc1ccccc1)C(=O)N[C@@H](C)C(=O)N[C@@H](CCCCN)C(=O)N[C@H](C(=O)N[C@@H](C)C(=O)NCC(=O)N[C@H](C(=O)N[C@@H](CCCCN)C(=O)N[C@@H](C)C(=O)N[C@@H](C)C(=O)N[C@@H](CCCCN)C(=O)O)C(C)C)C(C)C [GWGDTFGKVLKNFAKVAGVKAAK] |  |  |  | > 64 |
| C[C@H](NC(=O)[C@H](C)NC(=O)[C@H](CCCCN)NC(=O)[C@H](CCCCN)NC(=O)[C@H](C)NC(=O)[C@H](C)NC(=O)[C@H](CCCCN)NC(=O)[C@H](C)NC(=O)[C@H](C)NC(=O)[C@H](CCCCN)NC(=O)[C@H](CCCCN)NC(=O)[C@H](C)NC(=O)[C@H](C)NC(=O)[C@H](CCCCN)NC(=O)[C@H](C)NC(=O)[C@H](C)NC(=O)[C@H](CCCCN)NC(=O)[C@H](CCCCN)NC(=O)[C@H](C)NC(=O)[C@H](C)NC(=O)[C@@H](N)CCCCN)C(N)=O [KAAKKAAKAAKKAAKAAKKAA] | 8 (≈ 16.2 µg/mL) |  |  | 8 (≈ 16.2 µg/mL) |
| CC(C)C[C@H](NC(=O)[C@H](CCCCN)NC(=O)CNC(=O)[C@H](CC(C)C)NC(=O)[C@H](CCCCN)NC(=O)[C@H](CCCCN)NC(=O)CNC(=O)[C@H](CC(C)C)NC(=O)[C@@H](N)CCCCN)C(=O)NCC(=O)N[C@@H](CCCCN)C(=O)N[C@@H](CCCCN)C(=O)N[C@@H](CC(C)C)C(=O)NCC(N)=O [KLGKKLGKLGKKLG] | 22 (≈ 32.3 µg/mL) |  |  | 22 (≈ 32.3 µg/mL) |
| CC(=O)N[C@@H](CCCCN)C(=O)N[C@@H](CC(C)C)C(=O)N[C@@H](CC(C)C)C(=O)N[C@@H](CCCCN)C(=O)N[C@@H](CC(C)C)C(=O)N[C@@H](CC(C)C)C(=O)N[C@@H](CCCCN)C(=O)N[C@@H](CCCCN)C(=O)N[C@@H](CC(C)C)C(=O)N[C@@H](CC(C)C)C(=O)N[C@@H](CCCCN)C(=O)N1CCC[C@H]1C(=O)N[C@@H](CC(C)C)C(=O)N[C@@H](CCCCN)C(N)=O [KLLKLLKKLLKPLK] | 28.3 (≈ 48.6 µg/mL) | 10 (≈ 17.2 µg/mL) |  |  |
| CC(=O)N[C@@H](CCCCN)C(=O)N[C@@H](CC(C)C)C(=O)N[C@@H](CC(C)C)C(=O)N[C@@H](CCCCN)C(=O)N[C@@H](CC(C)C)C(=O)N[C@@H](CC(C)C)C(=O)N1CCC[C@H]1C(=O)N[C@@H](CCCCN)C(=O)N[C@@H](CC(C)C)C(=O)N[C@@H](CC(C)C)C(=O)N[C@@H](CCCCN)C(=O)N[C@@H](CC(C)C)C(=O)N[C@@H](CC(C)C)C(=O)N[C@@H](CCCCN)C(N)=O [KLLKLLPKLLKLLK] | 10 (≈ 17 µg/mL) | 5 (≈ 8.51 µg/mL) |  |  |
| NCCCC[C@H](NC(=O)[C@H](Cc1c[nH]c2ccccc12)NC(=O)[C@H](Cc1c[nH]c2ccccc12)NC(=O)[C@H](CCCCN)NC(=O)[C@H](CCCCN)NC(=O)[C@H](Cc1c[nH]c2ccccc12)NC(=O)[C@@H](N)CCCCN)C(=O)N[C@@H](Cc1c[nH]c2ccccc12)C(=O)N[C@@H](Cc1ccccc1)C(N)=O [KWKKWWKWF] | 2.81 (≈ 4 µg/mL) |  |  |  |
| CC(C)C[C@H](NC(=O)[C@@H](NC(=O)[C@H](C)NC(=O)CNC(=O)[C@H](Cc1c[nH]c2ccccc12)NC(=O)[C@H](CC(N)=O)NC(=O)[C@@H](N)CC(C)C)C(C)C)C(=O)N[C@@H](CCCCN)C(=O)N[C@@H](Cc1cnc[nH]1)C(=O)N[C@H](C(=O)N[C@H](C(=O)N[C@@H](CCCCN)C(=O)O)C(C)C)C(C)C [LNWGAVLKHVVK] |  |  | 32 (≈ 43.6 µg/mL) |  |
| CC(C)[C@H](NC(=O)[C@H](Cc1c[nH]c2ccccc12)NC(=O)[C@H](CCCCN)NC(=O)[C@@H](N)CCCN=C(N)N)C(=O)N[C@@H](CCCCN)C(=O)N[C@@H](Cc1c[nH]c2ccccc12)C(=O)N[C@@H](CCCN=C(N)N)C(=O)N[C@@H](CC(N)=O)C(=O)N[C@@H](CCCN=C(N)N)C(=O)O [RKWVKWRNR] | 94.1 (≈ 125 µg/mL) | 23.5 (≈ 31.3 µg/mL) |  |  |
| CC(C)C[C@H](NC(=O)[C@H](Cc1ccccc1)NC(=O)[C@H](C)NC(=O)[C@H](Cc1c[nH]c2ccccc12)NC(=O)[C@H](Cc1c[nH]c2ccccc12)NC(=O)[C@H](Cc1c[nH]c2ccccc12)NC(=O)[C@@H]1CCCN1C(=O)[C@H](Cc1ccccc1)NC(=O)[C@H](CCCCN)NC(=O)[C@H](CCCCN)NC(=O)[C@@H](N)C(C)C)C(=O)N[C@@H](CCCCN)C(=O)N[C@@H](CCCCN)C(N)=O [VKKFPWWWAFLKK] | 4 (≈ 7.05 µg/mL) |  |  |  |
| NC(=O)[C@H](Cc1c[nH]c2ccccc12)NC(=O)[C@H](CCCN=C(N)N)NC(=O)[C@H](Cc1c[nH]c2ccccc12)NC(=O)[C@H](CCCN=C(N)N)NC(=O)[C@H](Cc1c[nH]c2ccccc12)NC(=O)[C@@H](N)Cc1c[nH]c2ccccc12 [WWRWRW] | 9.3 (≈ 9.99 µg/mL) |  | 18.6 (≈ 20 µg/mL) | 4.65 (≈ 5 µg/mL) |
